Consider four molecules from patent US10245267B2, “Biaryl amide compounds as kinase inhibitors” (NOVARTIS AG, priority 2013, dated 2019).

Where two headings read alike, the source gives them in different places.

The target of experiment [1] is C-Raf FL (full-length C-Raf protein) (Homo sapiens (Human), UniProt P04049, Y340E/Y341E). Type of experiment: biochemical. Conditions: read-out: c-Raf FL IC-50.
The next experiment has as its target b-Raf(V600E) (Homo sapiens (Human), UniProt P15056, V600E). Conditions: read-out: b-Raf IC-50; Table 2; Alpha Screen, ATP 10 μM, 3 hours reaction.
Setting [2] is: Table 2, Alpha Screen, ATP 1 uM, 1 hour reaction.

Sequence of C-Raf FL (full-length C-Raf protein) (P04049 whole entry Y340E/Y341E): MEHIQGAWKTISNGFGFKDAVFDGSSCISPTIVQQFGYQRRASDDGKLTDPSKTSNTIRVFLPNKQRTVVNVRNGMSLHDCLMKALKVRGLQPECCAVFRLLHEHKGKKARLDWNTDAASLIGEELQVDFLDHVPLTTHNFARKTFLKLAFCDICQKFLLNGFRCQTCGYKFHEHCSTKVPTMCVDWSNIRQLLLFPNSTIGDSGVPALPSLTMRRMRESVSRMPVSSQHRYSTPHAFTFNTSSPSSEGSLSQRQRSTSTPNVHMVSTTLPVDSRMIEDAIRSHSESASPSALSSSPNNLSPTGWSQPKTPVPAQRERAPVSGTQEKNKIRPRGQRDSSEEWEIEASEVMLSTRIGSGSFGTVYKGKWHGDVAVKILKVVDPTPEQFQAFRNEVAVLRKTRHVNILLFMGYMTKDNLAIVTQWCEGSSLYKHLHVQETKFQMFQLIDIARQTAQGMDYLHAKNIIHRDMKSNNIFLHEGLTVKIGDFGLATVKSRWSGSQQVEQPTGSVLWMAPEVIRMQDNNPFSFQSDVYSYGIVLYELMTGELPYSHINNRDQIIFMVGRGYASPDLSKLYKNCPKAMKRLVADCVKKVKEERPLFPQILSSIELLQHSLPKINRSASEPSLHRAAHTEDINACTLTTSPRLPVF
Sequence of C-Raf FL (full-length C-Raf protein) (P63104 whole entry partner): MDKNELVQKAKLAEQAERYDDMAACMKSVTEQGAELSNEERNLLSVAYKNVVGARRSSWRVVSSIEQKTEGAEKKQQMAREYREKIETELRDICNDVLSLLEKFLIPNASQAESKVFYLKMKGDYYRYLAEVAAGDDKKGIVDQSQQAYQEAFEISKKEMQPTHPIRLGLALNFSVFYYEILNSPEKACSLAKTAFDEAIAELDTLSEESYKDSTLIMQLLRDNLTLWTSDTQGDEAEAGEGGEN
Sequence of b-Raf(V600E) (P15056 whole entry V600E): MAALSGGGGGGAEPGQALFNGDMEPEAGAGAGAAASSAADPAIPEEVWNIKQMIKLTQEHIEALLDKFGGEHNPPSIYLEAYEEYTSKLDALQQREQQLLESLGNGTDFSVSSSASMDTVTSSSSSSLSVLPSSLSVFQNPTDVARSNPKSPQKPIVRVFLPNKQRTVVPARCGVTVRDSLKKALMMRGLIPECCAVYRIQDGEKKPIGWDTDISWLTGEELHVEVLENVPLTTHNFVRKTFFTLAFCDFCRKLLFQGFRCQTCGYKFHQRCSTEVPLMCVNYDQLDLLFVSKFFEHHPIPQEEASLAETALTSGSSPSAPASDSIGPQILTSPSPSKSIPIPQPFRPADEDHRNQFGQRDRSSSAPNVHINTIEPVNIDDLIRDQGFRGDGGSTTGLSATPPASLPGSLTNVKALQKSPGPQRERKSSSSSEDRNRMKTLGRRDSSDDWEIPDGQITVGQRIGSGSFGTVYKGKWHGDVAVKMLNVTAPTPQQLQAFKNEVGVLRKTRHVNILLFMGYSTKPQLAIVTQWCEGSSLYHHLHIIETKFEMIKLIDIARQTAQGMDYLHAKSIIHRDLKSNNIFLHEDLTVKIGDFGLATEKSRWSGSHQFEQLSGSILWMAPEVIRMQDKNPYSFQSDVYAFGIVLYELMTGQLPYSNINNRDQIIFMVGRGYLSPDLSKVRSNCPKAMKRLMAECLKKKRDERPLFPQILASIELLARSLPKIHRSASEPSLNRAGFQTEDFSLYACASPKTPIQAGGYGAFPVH

As to `Cc1ccc(NC(=O)c2cccc(C(F)(F)F)c2)cc1-c1cc(N2CCOCC2)c(OCCO)nn1` [Example 590, N-(3-(6-(2-hydroxyethoxy)-5-morpholinopyridazin-3-yl)-4-methylphenyl)-3-(trifluoromethyl)benzamide], the IC50 in experiment [1] (setting [2]) turned out to be 0.2 nM; at b-Raf(V600E), 0.9 nM. As for `CCNc1nc(-c2cc(C(=O)Nc3cccc(C(F)(F)F)c3)ccc2C)cc(N2CCOCC2)n1` [Example 710, 3-(2-(ethylamino)-6-morpholinopyrimidin-4-yl)-4-methyl-N-(3-(trifluoromethyl)phenyl) benzamide], the results for the IC50 (in experiment [1] (setting [2]); on b-Raf(V600E)) were 1.6 nM and 4 nM, respectively. For the molecule `CCNc1nc(-c2cc(NC(=O)c3ccnc(C(F)(F)F)c3)ccc2C)cc(N2CCOCC2)n1` [Example 719, N-(3-(2-(ethylamino)-6-morpholinopyrimidin-4-yl)-4-methylphenyl)-2-(trifluoromethyl) isonicotinamide], the IC50 at b-Raf(V600E) is 2 nM.

`Cc1ncc(NC(=O)c2cccc(C(F)(F)F)c2)cc1-c1cc(N2CCOCC2)nc(NC[C@@H](C)O)n1` [Example 743, (R)—N-(5-(2-((2-hydroxypropyl)amino)-6-morpholinopyrimidin-4-yl)-6-methylpyridin-3-yl)-3-(trifluoromethyl) benzamide]: in experiment [1], the IC50 came to 0.8 nM.
